Source: publication PMC10525927, “First Generation of Antioxidant Precursors for Bioisosteric Se-NSAIDs: Design, Synthesis, and In Vitro and In Vivo Anticancer Evaluation” (Antioxidants, 2023)
Like-named read-outs stand apart in the source and are kept apart here.

Key:
[1] = test system: MDA-MB-231 breast cancer cells; assay: MTT cell viability assay, MDA-MB-231; type: cell-based; conditions: mean ± SD
Experimental: (§1) The cell lines were purchased from the American Type Culture Collection (ATCC). The cancer cell lines DU-145, PC-3, T-47D, MDA-MB-231, H1299, and A549, and the non-tumorigenic cells (184B5 and BEAS-2B), were maintained in RPMI 1640 medium (Gibco, Alcobendas, Madrid, Spain) supplemented with 10% fetal bovine serum (FBS; Gibco) and 1% antibiotics (10.00 units/mL penicillin and 10.00 mg/mL streptomycin; Gibco). Colon cancer cells HT-29 and HCT-116 were cultured in McCoy’s 5A medium (Gibco) supplemented with 10% fetal bovine serum (FBS; Gibco) and 1% antibiotics (10.00 units/mL penicillin and 10.00 mg/mL streptomycin; Gibco). Cells were maintained in tissue culture flasks at 37 °C and 5% CO2. The culture medium was replaced every three days.
(§2) The antiproliferative activity and selectivity in vitro of the Se-NSAID derivatives were determined by the (3-(4,5-dimethylthiazol-2-yl)-2,5-diphenyltetrazolium bromide) (MTT) assay. Compounds were dissolved in DMSO at a concentration of 0.01 M and serial dilutions were prepared. The Se-NSAID derivatives were tested at seven concentrations ranging between 1 and 100 µM in the colon (HT-29 and HCT-116), prostate (DU-145 and PC-3), breast (MDA-MB-231 and T-47D), and lung (H1299 and A549) cancer cell lines. The non-tumorigenic breast (184B5) and lung (BEAS-2B) cell lines were also tested to assess the selectivity of the compounds following the same procedure. A total of 1 × 10^4 cells were seeded per well in 96-well plates and incubated at 5% CO2 and 37 °C for 24 h. Then, cells were treated with either DMSO or increasing concentrations of the corresponding Se-NSAID derivatives for 48 h. A volume of 20 µL of MTT (5 mg/mL) was added to each well 2.5 h before the termination point. At the end of the experiment, the medium was removed, and the resultant formazan crystals formed by mitochondrial reduction of MTT were dissolved in 50 µL of DMSO. Absorbance was measured at 550 nm. IC50, GI50, TGI, and LC50 values were calculated using OriginPro version 8.5.1. software by nonlinear curve fitting. Selectivity indexes (SI) were calculated as the ratio of the IC50 values determined for the nonmalignant and the tumoral cells in the breast (IC50 (184B5)/IC50 (MDA-MB-231) and IC50 (184B5)/IC50 (T-47D)) and lung (IC50 (BEAS-2B)/IC50 (H1299) and IC50 (BEAS-2B)/IC50 (A549)) cell lines. Data were obtained from at least three independent experiments performed in triplicates.

[2] = test system: panel of eight cancer cell lines; assay: MTT cell viability assay, statements on the whole panel; type: cell-based; conditions: 48 h
Experimental: as §1, §2

A549 lung cancer cells = assay: MTT cell viability assay, A549; type: cell-based; conditions: Homo sapiens, A549, 48 h, mean ± SD
Experimental: as §1, §2

[3] = test system: 184B5 non-tumorigenic breast (mammary gland) cells; assay: MTT cell viability assay, 184B5; type: cell-based; conditions: mean ± SD; for IC50: nonmalignant breast cells
Experimental: as §1, §2

[4] = test system: PC-3 prostate cancer cells; assay: MTT cell viability assay, PC-3; type: cell-based; conditions: 48 h, mean ± SD
Experimental: as §1, §2

[5] = DPPH radical scavenging assay
Experimental: Briefly, the compounds were dissolved at a concentration of 1 mg/mL in absolute methanol, and a dilution was prepared. […] Then, 100 µL of the DPPH solution was added to 100 µL of the compounds’ solution to a final concentration of 0.03 mg/mL or 0.06 mg/mL, and the decolorization of the purple radical to the yellowish reduced form was followed by recording the absorbance at 517 nm. Ascorbic acid (Asc) and Trolox were used as positive controls. Both of them, Asc and Trolox, were purchased from Sigma-Aldrich. Determinations were recorded at eight different time intervals from 0 to 120 min on a BioTeck PowerWave XS spectrophotometer, and the data were collected using KCJunior version 1.41. software. All the measurements were carried out in triplicate. Results are expressed as the percentage of the radical scavenged, calculated using the following formula: % DPPH radical scavenging = [(Acontrol − Asample)/Acontrol] × 100, wherein Acontrol refers to the absorbance of the negative control and Asample refers to the absorbance of the tested compounds.

HT-29 colon cancer cells = assay: MTT cell viability assay, HT-29; type: cell-based; conditions: mean ± SD
Experimental: as §1, §2

[6] = in vitro TGI concentration, 48 h, Table S1

CC(C)Cc1ccc(C(C)C(=O)[Se][Se]C(=O)C(C)c2ccc(CC(C)C)cc2)cc1 (stereo not drawn) [Compound 5, 2-(4-Isobutylphenyl)propanoic diselenoperoxyanhydride]
IC50 ([1]; Homo sapiens, MDA-MB-231, 48 h): 8.3 ± 2.5 µM | GI50 ([1]; Homo sapiens, MDA-MB-231, 48 h, Table S1): 4.8 ± 1.1 µM | TGI MDA-MB-231 [1, 6]: 7.9 ± 3.8 µM | GI50 ([2]; eight cancer cell lines, read-out: GI50 across all the cancer cell lines tested): < 10 µM | IC50 ([2]; eight colon, prostate, breast and lung cancer cell lines, read-out: IC50 in all the cancer cell lines tested): < 10 µM | GI50 ([2]; read-out: GI50 in at least six out of the eight cell lines): < 5 µM | IC50 (A549 lung cancer cells): 4.5 ± 0.6 µM | GI50 (A549 lung cancer cells; Table S1): 2300 ± 200 nM | IC50 ([3]; 48 h): 18.2 ± 0.8 µM | GI50 ([3]; Homo sapiens, 184B5, 48 h, Table S1): 6.6 ± 1.5 µM | IC50 ([3]; Homo sapiens, 184B5, 48 h): 14 to 19 µM | TGI 184B5 [3, 6]: 11.1 ± 1.4 µM | IC50 [4]: 7.4 ± 0.5 µM | GI50 ([4]; Table S1): 4.7 ± 0.2 µM | LD50 PC-3 ([4]; Table S1): 8.9 ± 1.9 µM | TGI PC-3 ([4]; in vitro TGI concentration, Table S1): 6.1 ± 0.5 µM | DPPH radical scavenging activity ([5]; highest concentration tested (0.06 mg/mL), by the end of the experiment (120 min)): comparable to those of the positive controls | DPPH radical scavenging activity ([5]; lowest concentration tested (0.03 mg/mL)): 20% | IC50 (HT-29 colon cancer cells; Homo sapiens, HT-29, 48 h): 8.5 ± 2.7 µM | GI50 (HT-29 colon cancer cells; Homo sapiens, HT-29, 48 h, Table S1): 4.8 ± 1 µM | TGI HT-29 (HT-29 colon cancer cells; [6]): 7.2 ± 1.8 µM
